Measurements from EP2803317B1, “MRI METHOD FOR MEASURING DIFFUSION PARAMETERS OF TRACER IN LIVING ORGAN TISSUE SPACE AND EXTRACELLULAR SPACE” (Peking University Third Hospital, priority 2012, dated 2013).

How the values were obtained:
[1] = MRI tracer method: diffusion parameters of Gd-DTPA in brain ECS of SD rats, fitted from time-series MRI images; format: in vivo; conditions: for λ: tortuosity
Procedure: (§1) A method for computing the physiological parameter in the living organism will be illustrated with the following embodiment. In the embodiment, Gadolinium-diethylenetriaminepentaacetic acid (Gd-DTPA) which is Mag-nevist solution produced by Bayer Schering Pharma AG was used as the tracer. The corresponding MRI signal intensities of the tracer with the actual concentration in agarose gel and rat brain were measured. Male Sprague Dawley rats weighing 250-300g were used in the experiment. The living organism used for measurement is the rat brain. A Siemens Magnetom Trio 3.0 T MRI system was used to obtain the rat brain images.
(§2) In this embodiment, the position of the injection site Q and the depth of Gd-DTPA microinjection of the rat brains were determined by three-dimensional reconstructed image basing on the brain stereotaxic atlas. The specific method was: preparing skin, shaving between the eyes of rats about 4cm skin backwards along the midline of the skull and exposing the skull plate; then fixing the rats in a stereotactic apparatus and administrating the drug at the injection site Q using magnetic drug delivery system; rubbing off the skull plate at the entry point with an electric drill, setting a micro syringe into the brain and manually administrating 2µLGd-DTPA solution with the concentration of 10mM into the target location in three injection with the interval of 5min. The syringe was left for 10 min in the brain when drug injection was finished before the micro syringe was exited and the skin was sutured. Scanned images were taken in 15min, 30min, 1h, 2h, 3h, 4h, 6h, 9h and 12h and imaging parameters were set as the mentioned above.
As shown in the FIG., the bias field is first to be correct to eliminate the signal strength deviation among the sequence of images; the image registration technique is then used to unify the position of the increment images with the referenced images; the diffusion model is finally solved via the distribution of the tracer concentration from different times obtained by the analysis of the signal strength increment.
Although the tortuosity varies in different directions and remains unchanged in the same direction in equation (5), the real tortuosity probably varies in the same direction. The space variability of the tortuosity should be determined to accurately describe the real diffusion process. The tortuosity of a point (x, y, z) in space is: λ = λ(x, y, z) [formula] or written in a polar coordinates: λ = λ(r, θ, φ) [formula] the diffusion model is changed to: (∂C)/(∂t) = (D)/(λ((x, y, z))^2)(∇)^2 C−(Q)/(α)−k′C [formula]
Although equation (10) fully considers the space variability of the tortuosity, the solution of equation (8) is difficult to get. The equation (8) is a partial differential formula with variable coefficients and usually has no analytic solution. The continuous problem can be turned into a discrete problem to solve the equation (10): ΔSI(t+Δt)−ΔSI(t) = (D)/(λ((x, y, z))^2)(∇)^2 (ΔSI) + (Q)/(α)k−k′ΔSI(t) + k′b [formula] wherein, Δt is the sampling time in each unit, [formula] Δi represents the space distance of sampling along the axis i. It depends on the space resolution of the image along the axis i.
For the discrete equation (11), the space tortuosity λ, the loss ratio k' and the part volume ratio α can be fit by the least squares method, i.e. the solution of the below optimization problem is required: [formula]
Write the equation (12) in a matrix form and get: min f(λ,α,k′) = ‖Ax−b‖2^2 [formula] wherein, the nonvanishing element in the line (x, y, z, t,:) of the matrix A is : ((∂)^2 ΔSI)/((∂)^2 r) + k−ΔSI + b [formula] the line (x, y, Z, t,) of the known vector b is: b(x,y,z,t,:) = ΔSI(t+Δt)−ΔSI(t) [formula] the substitution variable x is: x = ([(D)/(λ((x, y, z))^2),(Q)/(α),k′])^T [formula] […]

[2] = MRI tracer method: distribution volume, distribution volume fraction and macro clearance of Gd-DTPA in brain hemisphere ECS after injection in caudate nucleus; format: in vivo, SD rats; conditions: for Macro clearance: injection to the caudate nucleus of eight SD rats; for Distribution Volume Fraction: rat brain hemisphere; for Distribution Volume Fraction / Distribution Volume (Vd): after injection in caudate nucleus; for Distribution Volume (Vd): rat brain
Procedure: as §1, §2
(§3) Calculation method about distribution volume (Vd), distribution volume fraction and general clearance of the tracer in the living organism is as follows: reconstructing the registered and subtracted images into axial images; quantitative measuring the signal increment region in image of each layer via the Matlab program as shown in figures; and recording the number of pixels in the increment region and the signal intensity value of each pixel. According to the integral principle, we can obtain the distribution volumes (Vd) of the tracer (Gd-DTPA) from different times in the brain hemisphere ECS via adding up the increment region of each layer. The distribution volume fraction of Gd-DTPA in the brain hemisphere ECS can be obtained by dividing the Vd from different times by the volume of the brain hemisphere of the rat. The macro clearance is defined as the total signal intensity at a previous time subtracting the total signal intensity at a later time, then dividing the initial total signal intensity.
The selected region in the FIG. is obtained by subtracting the image before increment from the increment image. The increment region is shown as the "bright region" and the other un-increment region is shown as the "dark region". […] Using the bulleted method above can measure the Vd, the distribution volume fraction and the macro clearance of the caudate nucleus.

[3] = MRI tracer method: diffusion parameters of Gd-DTPA in the skeletal muscle gap; format: in vivo; conditions: rat skeletal muscle gap
Description: (§4) Although the above invention is for the brain ECS of the SD rat, the present invention is applicable to other the living organisms. […] The left high signal region adjacent to the femur is the Gd-DTPA's diffusion region after injection.

[4] = MRI tracer method: distribution volume and macro clearance of Gd-DTPA in the skeletal muscle gap; format: in vivo; conditions: rat skeletal muscle gap
Description: as §3, §4

[5] = MRI tracer method: diffusion parameters of Gd-DTPA in the glioma brain; format: in vivo; conditions: glioma brain of the rat
Description: Table 8: the diffusion parameter of Gd-DTPA in the glioma brain of the rat

[6] = MRI tracer method: distribution volume, distribution volume fraction and macro clearance of Gd-DTPA in the glioma brain; format: in vivo; conditions: glioma brain of the rat
Description: as §3
Using the same method as used in the brain ECS, we can learn the time-varying change rule of distribution volume of the Gd-DTPA in the glioma brain of the rat. Table 9: the time-varying change rule of distribution volume of the Gd-DTPA in the glioma brain of the rat

[7] = SD rat brain, caudate putamen (CPu), Gd-DTPA 2µL, 10mM microinjection
[8] = SD rat brain, medial prefrontal cortex (mPFC), Gd-DTPA 2µL, 10mM microinjection
[9] = SD rat brain, occipital cortex (Oc), Gd-DTPA 2µL, 10mM microinjection
[10] = SD rat brain, substantianigra (SN), Gd-DTPA 2µL, 10mM microinjection
[11] = SD rat brain, thalamus (T), Gd-DTPA 2µL, 10mM microinjection
[12] = rats' caudate nucleus region, anisotropic, direction -X
[13] = rats' caudate nucleus region, anisotropic, direction -Y
[14] = rats' caudate nucleus region, anisotropic, direction -Z
[15] = rats' caudate nucleus region, anisotropic, direction X
[16] = rats' caudate nucleus region, anisotropic, direction Z

SMILES: O=C([O-])CN(CCN(CC(=O)[O-])CC(=O)O)CCN(CC(=O)[O-])CC(=O)O.[Gd+3] [Gd-DTPA, Gadolinium-diethylenetriaminepentaacetic acid]
- D^∗ [1, 7]: 3.38 ×10^-4/mm^2·s^-1
- k' [1, 7]: 0.76 ×^10-4/mM· L^-1· s^-1
- D^∗ [1, 8]: 2.31 ×10^-4/mm^2·s^-1
- k' [1, 8]: 2.38 ×^10-4/mM· L^-1· s^-1
- D^∗ [1, 9]: 3.25 ×10^-4/mm^2·s^-1
- k' [1, 9]: 1.55 ×^10-4/mM· L^-1· s^-1
- D^∗ [1, 10]: 2.06 ×10^-4/mm^2·s^-1
- k' [1, 10]: 8.28 ×^10-4/mM· L^-1· s^-1
- D^∗ [1, 11]: 3.28 ×10^-4/mm^2·s^-1
- k' [1, 11]: 1.44 ×^10-4/mM· L^-1· s^-1
- D^∗ [1, 12]: 3.57 ± 0.88 ×10^-4/mm^2·s^-1
- k' [1, 12]: 7.14 ± 3.06 ×10^-5/mM·L^-1·s^-1
- D^∗ [1, 13]: 3.05 ± 0.93 ×10^-4/mm^2·s^-1
- k' [1, 13]: 7.59 ± 4.04 ×10^-5/mM·L^-1·s^-1
- D^∗ [1, 14]: 4.01 ± 0.60 ×10^-4/mm^2·s^-1
- k' [1, 14]: 7.88 ± 6.24 ×10^-5/mM·L^-1·s^-1
- D^∗ [1, 15]: 3.73 ± 1.10 ×10^-4/mm^2·s^-1
- k' [1, 15]: 7.67 ± 3.96 ×10^-5/mM·L^-1·s^-1
- D^∗ [1, 16]: 2.54 ± 1.27 ×10^-4/mm^2·s^-1
- k' [1, 16]: 7.74 ± 4.07 ×10^-5/mM·L^-1·s^-1
- λ ([1]; SD rat brain, caudate putamen (CPu)): 1.24
- λ ([1]; SD rat brain, medial prefrontal cortex (mPFC)): 1.50
- λ ([1]; SD rat brain, occipital cortex (Oc)): 1.26
- λ ([1]; SD rat brain, substantianigra (SN)): 1.59
- λ ([1]; SD rat brain, thalamus (T)): 1.26
- Macro clearance ([2]; time 1-2 h): 0.23 h⁻¹
- Macro clearance ([2]; time 2-3 h): 0.12 h⁻¹
- Macro clearance ([2]; time 3-4 h): 0.19 h⁻¹
- Macro clearance ([2]; time 4-6 h): 0.11 h⁻¹
- Macro clearance ([2]; time 6-9 h): 0.06 h⁻¹
- Macro clearance ([2]; time 9-12 h): 0.08 h⁻¹
- Distribution Volume Fraction ([2]; time 1 h): 7.55%
- Distribution Volume Fraction ([2]; time 2 h): 9.48%
- Distribution Volume Fraction ([2]; time 3 h): 9.45%
- Distribution Volume Fraction ([2]; time 4 h): 8.20%
- Distribution Volume Fraction ([2]; time 6 h): 6.96%
- Distribution Volume Fraction ([2]; time 9 h): 4.29%
- Distribution Volume Fraction ([2]; time 12 h): 1.33%
- Distribution Volume (Vd) ([2]; time 1 h): 724.75 mm^3
- Distribution Volume (Vd) ([2]; time 2 h): 910.50 mm^3
- Distribution Volume (Vd) ([2]; time 3 h): 907.25 mm^3
- Distribution Volume (Vd) ([2]; time 4 h): 787.57 mm^3
- Distribution Volume (Vd) ([2]; time 6 h): 668.50 mm^3
- Distribution Volume (Vd) ([2]; time 9 h): 411.57 mm^3
- Distribution Volume (Vd) ([2]; time 12 h): 128.13 mm^3
- D^∗ ([3]; direction -X): 2.611 ×10^-4/mm^2·s^-1
- k' ([3]; direction -X): 2.359 ×10^-4/mM·L^-1·s^-1
- D^∗ ([3]; direction -Y): 8.235 ×10^-4/mm^2·s^-1
- k' ([3]; direction -Y): 10.940 ×10^-4/mM·L^-1·s^-1
- D^∗ ([3]; direction -Z): 7.154 ×10^-4/mm^2·s^-1
- k' ([3]; direction -Z): 5.083 ×10^-4/mM·L^-1·s^-1
- D^∗ ([3]; direction X): 2.930 ×10^-4/mm^2·s^-1
- k' ([3]; direction X): 2.870 ×10^-4/mM·L^-1·s^-1
- D^∗ ([3]; direction Z): 9.537 ×10^-4/mm^2·s^-1
- k' ([3]; direction Z): 7.817 ×10^-4/mM·L^-1·s^-1
- Vd ([4]; time 5 min): 407 mm^3
- Vd ([4]; time 10 min): 383 mm^3
- Vd ([4]; time 15 min): 234 mm^3
- Vd ([4]; time 25 min): 0 mm^3
- Macro clearance ([4]; time(h) 5-10): 0.28 h⁻¹
- Macro clearance ([4]; time(h) 10-15): 0.36 h⁻¹
- Macro clearance ([4]; time(h) 15-25): 0.36 h⁻¹
- k' ([5]; direction -X): 3.31 ×10^-4/mM·L^-1·s^-1
- k' ([5]; direction -Y): 3.12 ×10^-4/mM·L^-1·s^-1
- k' ([5]; direction -Z): 3.05 ×10^-4/mM·L^-1·s^-1
- k' ([5]; direction X): 3.13 ×10^-4/mM·L^-1·s^-1
- k' ([5]; direction Z): 3.15 ×10^-4/mM·L^-1·s^-1
- Macro clearances ([6]; time 0.5-1 h): 0.23 h⁻¹
- Macro clearances ([6]; time 1-2 h): 0.36 h⁻¹
- Macro clearances ([6]; time 2-3 h): 0.41 h⁻¹
- Distribution Volume Fraction ([6]; time 0.25 h): 4.85%
- Vd ([6]; time 0.25 h): 466 mm^3
- Distribution Volume Fraction ([6]; time 0.5 h): 6.78%
- Vd ([6]; time 0.5 h): 651 mm^3
- Distribution Volume Fraction ([6]; time 1 h): 7.50%
- Vd ([6]; time 1 h): 720 mm^3
- Distribution Volume Fraction ([6]; time 2 h): 5.24%
- Vd ([6]; time 2 h): 503 mm^3
- Distribution Volume Fraction ([6]; time 3 h): 0%
- Vd ([6]; time 3 h): 0 mm^3
